How the values were obtained:
RAW 264.7 cells = test: MTT cell viability of RAW 264.7 cells; format: cell-based; settings: 2.5-10 nM, 24 hours
Experimental: RAW 264.7 cells (a mouse leukaemic monocyte macrophage cell line) were treated with solutions containing liposomal lupeol acetate (10 ? 20 ? 40 ? 80 μM) and NF-kB inhibitor QNZ (2.5 ? 5 ? 7.5 ? 10 nM), respectively, for 24 hours, then the viability was analyzed by MTT method, comparing to the results of the control group.
5×10^4 RAW264.7 cells/well were seeded in 96-well culture dishes, and treated with directed concentration of liposomal lupeol acetate and QNZ for 24 hours after the 24-hr attachment. After removing the culture medium, 100 μl of 0.5 mg/ml MTT solution was added, and the cells were incubated at 37° C. for 4 hours. The mitochondrial enzyme (succinate dehydrogenase, SDH) in living cells will react with tetrazolium bromide in the MTT solution and form formazan blue-purple crystals. The MTT solution was removed and 200 μl DMSO was added to dissolve the blue-purple crystal, and then the O.D. (optical density) value was read under wavelength of 570 nm on an ELISA reader (TECAN Sunrise, USA). The relative cell viability is calculated by comparing the absorbance value of drug treated group with that of the control group (setting the value of control group as 100%).

NFATc1 = NFATc1 expression by real-time Q-PCR under RANKL induction; format: cell-based; settings: NF-κB inhibitor 5 nM
Description: (§1) The cells were stained with tartrate-resistant acid phosphatase (TRAP) and observed by microscopy to assure the differentiation of osteoclast after the cultivation of five days (Bar=200 μm).
Next, the real time Q-PCR is used for analyzing the change of NFATc1 (nuclear factor of activated T cell, the major factor of osteoclast proliferation and known as cytoplasmic 1) under the RANKL induction and drug treatments.

osteoclasts = test: TRAP staining of RANKL-induced osteoclast differentiation from macrophage; format: cell-based; settings: 100 ng/ml RANKL, five days
Description: as §1
To evaluate the effects of the liposomal lupeol acetate (Lipo-LA) of present invention on the suppression of rheumatoid arthritis, we firstly analyze the differentiation of osteoclasts from certain cells using the tartrate-resistant acid phosphatase (TRAP) staining method. The TRAP staining is used to detect the internal acid phosphatase activity of leukocytes in a blood, bone or tissue sample. Because osteoclasts contain acid phosphatase, we can use this staining method to determine the formation of osteoclast cells.
After removing the supernatant of culture, the cells are rinsed with PBS for two times, and then fixed with 3.7% paraformaldehyde for 1 hour. The fixed cells are washed with PBS. The Acid Phophatase Leukocyte kit (TRAP stain, Cat. 387-A, Sigma-Aldrich, USA) is used in the TRAP staining and the method is briefly described as follow. Before staining, the temperature of ddH2O used for adjuvant preparation is confirmed to be 37° C. The Fast Garnet GBC base and sodium nitrite solution at equal volumes are uniformly mixed for 30 seconds and incubated at room temperature for at least two minutes. […]

TNF-α = test: Immunohistochemistry of TNF-α in leg joints of CIA mice; format: in vivo, mouse; settings: 100 mg/kg LA or 50 mg/kg Lipo-LA, day 43, vs RA group
Description: (§2) In FIG. 8A, mice were sacrificed at the end of the animal experiment (day 43), and the legs was removed for the immunohistochemistry (IHC) of TNF-α and IL-1β and H&E staining. The arrows in H&E images indicate the position of articular cavity. There is significant accumulation of TNF-α and IL-1β appeared in the RA group.
(§3) Observing the suppressive effects of Lipo-LA on joint inflammation using immunohistochemistry (IHC). […] The legs of mouse were removed and subjected to paraffin embedding and sectioning. The sections were stained with anti-TNF-α and anti-IL-1β antibodies, respectively to assess the distribution of inflammatory cytokines.

IL-1β = test: Immunohistochemistry of IL-1β in leg joints of CIA mice; format: in vivo, mouse; settings: 100 mg/kg LA or 50 mg/kg Lipo-LA, day 43, vs RA group
Description: as §2, §3

[1] = test system: inflammatory condition induced by carrageenan; settings: Lucetti D L et al. J Inflamm 2010; cited from earlier work
rheumatoid arthritis = settings: US Patent Application no. 20120177754; 100 mg/kg, 12 days needed in mice; cited from earlier work
[2] = test system: collagen-induced arthritis (CIA) in DBA/1J mice; test: Collagen-induced arthritis (CIA) animal model; settings: oral daily
TGF-β = TGF-β in mouse hind leg proteins, Western blotting; settings: 100 mg/kg LA or 50 mg/kg Lipo-LA, day 32
Experimental: (§4) The mice were sacrificed by cervical dislocation on the 32nd day of the animal experiment. The whole leg of mouse was removed, and the leg tissue was ground by adding an appropriate amount of lysis buffer (tissue protein extraction reagent, T-PER, Pierce Protein Biology Products, IL, USA), centrifuged at 15,000 rpm for 20 minutes, and the supernatant is taken as the sample for each group.
(§5) Meanwhile, we also use Western blotting to observe the proteins extracted from mouse hind legs, and observe the expression level of immunosuppression-related proteins TGF-β and IL-10 secreted from Treg cells.

IL-10 = IL-10 in mouse hind leg proteins, Western blotting; settings: 100 mg/kg LA or 50 mg/kg Lipo-LA, day 32
Experimental: as §4, §5

[3] = 100 mg/kg LA or 50 mg/kg Lipo-LA, vs RA group

In the case of `Nc1ccc2ncnc(NCCc3ccc(Oc4ccccc4)cc3)c2c1` [QNZ], the “cell death of RAW264.7 cells (cell viability, MTT)” value (RAW 264.7 cells) is reported as “does not cause significant cell death” and the “expression of NFATc1” value (NFATc1) is reported as “reduces”.

With Lupeol acetate [LA] the “differentiation of osteoclast from macrophage (TRAP staining)” value (osteoclasts) was “inhibitory effects”, the “TNF-α staining (IHC) in joint” value (TNF-α) was “improvements” and the “IL-1β staining (IHC) in joint” value (IL-1β) was “improvements”. The “inflammatory condition induced by carrageenan in mice” value [1] was “effectively mitigate”, the “inhibiting inflammation and treatment of rheumatoid arthritis” value (rheumatoid arthritis) was “significant therapeutic effect” and the “arthritis scores (highest 16 points per mouse)” value [2, 3] was “significantly less scores”. The foot swelling [2, 3] was “significantly reduced”, the incidence of arthritis [2, 3] was “decreased incidence percentages” and the “toxic effects judged by changes in body weight of mice” value ([2]; 100 mg/kg LA) was “no toxic effects”. For the same compound, the “level of TGF-β” value (TGF-β) was “rising trend” and the “level of IL-10” value (IL-10) was “rising trend”.

From patent publication US10441540B2, “Liposomal lupeol acetate and the use thereof in preparing drugs for rheumatoid arthritis” (NATIONAL YANG-MING UNIVERSITY, priority 2014, dated 2019)
